Results from patent US20230381473A1, “Drug Device Electroporation Angioplasty System” (Hydra Vascular LLC, priority 2014, published 2023).

Assay: Ex vivo energy facilitated drug delivery from coated balloon to arteries in closed flow loop, HPLC quantification
Assay type: in vitro ADME, swine
Conditions: ex vivo porcine arteries, Trireme Chocolate balloon 6.0×40 coated with paclitaxel:PEG-8000 5:1 at 3.0 ug/mm2, GenePulser II 0.5 kV/1 μF, 3 pulses during about 1 minute expansion, vs same device without voltage
Source text: The energy source to power the device is a pulse generator capable of producing square waves. One commercial example of such a device is the BioRad Gene Pulser II (FIG. 7). The square wave generator produces suitable voltages between the range of 0.001 kV and 5 kV across the membrane. For all prototyping, this device was used to power all of coated catheters by connecting to the wire connection at the proximal catheter end. […] The tissue is then stored in isotonic saline and placed on ice (or 4° C.) for immediate use in an ex-vivo circulatory system.
Ex Vivo Testing Protocol • Fresh PBS is made with pre-measured pellets (1 pellet/100 ml H2O). • Porcine arterial tissue was acquired and cut to length • Arteries are placed in fresh PBS while cleaning of adventitia is performed. • Arteries are attached to the circulation apparatus with cannulas to allow flow through the vessel. […]

CC(=O)O[C@H]1C(=O)[C@@]2(C)[C@H]([C@H](OC(=O)c3ccccc3)[C@]3(O)C[C@H](OC(=O)[C@H](O)[C@@H](NC(=O)c4ccccc4)c4ccccc4)C(C)=C1C3(C)C)[C@]1(OC(C)=O)CO[C@@H]1C[C@@H]2O [paclitaxel]
enhancement of the transfer of paclitaxel to arteries by application of voltage (factor): 10 ×
